Experiments:
[1] = system: HUVEC (human umbilical venous endothelial cell); test: MTT assay, apoptosis of HUVEC caused by the lack of serum; type: cell-based; conditions: FBS free medium, 10 μg/ml, 24 hours; FIG. 3c
Description: (§1) The HUVEC (human umbilical venous endothelial cell) and retinal vascular endothelial cell (cell-systems, USA) were incubated at M199 medium containing 20% (w/v) FBS (HyClone, Canada), 100 units/m ? of penicillin (Invitrogen, USA), 100 μg/m ? of streptomycin (Invitrogen, USA), 3 ng/m ? of bFGF (basic fibroblast growth factor, Upstate Biotechnology, USA) and 5 units/m ? of heparin (Life Technologies, USA) under 5% CO2 gas condition at 37° C. (See FIG. 2a and FIG. 2b).
(§2) To investigate the suppression effect of SG was determined by (3-[4,5-dimethylthiazol-2-yl]-2,5-diphenyl tetrazolium bromide (MTT) assay method disclosed in the literature (Wang Z et al., Biol., Pharm. Bull., 24, pp 159-162, 2001).
(§3) HUVEC and retinal vascular endothelial cell were spread on 24-well plates (3×10^4 cells/well) and were incubated for 24 hours. The mediums were substituted with new medium containing 20% (w/v) FBS and FBS free medium respectively. The FBS free medium was treated with various concentrations of SG, i.e., 0, 1, 5, 10, 20 μg/m ? . The medium was incubated for 24 hours. After the incubation, MTT assay was performed.
(§4) To investigate the suppressive effect of SG, Rb1, Rg1, Re, Rg3, Rg5 and Rk1 on the cell apoptosis if retinal vascular endothelial cell caused by the lack of serum, the effect were determined by (3-[4,5-dimethylthiazol-2-yl]-2,5-diphenyl tetrazolium bromide (MTT) assay method disclosed in the literature (Wang Z et al., Biol., Pharm. Bull., 24, pp 159-162, 2001).
(§5) HUVEC and retinal vascular endothelial cell were spread on 24-well plates (3×10^4 cells/well) and were incubated for 24 hours respectively. The mediums were substituted with new medium containing 20% (w/v) FBS and FBS free medium respectively. The FBS free medium was treated with 10 μg/m ? of SG, Rb1, Rg1, Re, Rg3, Rg5 and Rk1 and the medium was incubated for 24 hours. After the incubation, MTT assay was performed.

[2] = system: vascular endothelial cells (HUVEC); test: DAPI staining, DNA fragmentation of vascular endothelial cell caused by the lack of serum; type: cell-based, human; conditions: FBS free medium, Rk1 0, 0.5, 1, 5, 10 μg/ml, 24 hours; FIG. 5
Description: FIG. 5 is the result of staining with DAPI showing suppressive effect of Rk1 on the apoptosis of HUVEC in medium,
Vascular endothelial cell were spread on 35 mm dish (1.5×10^5 cells/well) and were incubated for 24 hours. The mediums were substituted with new medium containing 20% (w/v) FBS and FBS free medium respectively. The FBS free medium was treated with various concentrations of Rk1, i.e., 0, 0.5, 1, 5, 10 μg/m ? and incubated for 24 hours. After the incubation, the medium was washed with PBS solution 2 times, fixed with 2% of paraformaldehyde and washed with PBS solution 2 times again. DAPI (4′,6-Diamidino-2-phenylindole-2-HCl. Calbiochem, USA) solution was added thereto, incubated for 30 minutes in darkroom and washed with PBS two times. The DNA fragmentation was measured by fluorescent microscope (Fluorescent microscope, Axioplan2, ZEISS, Germany) after mounting with cover slip.

[3] = system: retinal vascular endothelial cell; test: MTT assay, apoptosis of retinal vascular endothelial cell caused by the lack of serum; type: cell-based, human; conditions: FBS free medium, 10 μg/ml, 24 hours; FIG. 3c
Description: as §1, §2, §3, §4, §5

[4] = system: tight junction proteins ZO-1, ZO-2 and occludin; test: Western blot of tight junction proteins in mouse retina; type: in vivo, C57/BL6 mice; conditions: FIG. 6b
[5] = system: retinal vessel of C57/BL6 mice; test: Angiography with FITC-dextran, permeability of retinal vessel; type: in vivo; conditions: FIG. 11
Description: Both of 100 ng of VEGF and 30 μg of Rk1 were injected into the retina of C57/BL6 mice (Orient, Korea). After 24 hours, the mice were anesthetized and FITC-dextran was injected into the heart to allow fluorescent material to flow in blood. […] In the only VEGF-injected mice, it has been confirmed that the fluorescent material was exuded from neighboring tissues around blood vessel caused by the increased permeability of retinal vessel however the exudation in VEGF was recovered by the treatment of Rk1.
Likewise, it has been also confirmed that the fluorescent material was exuded from neighboring tissues around blood vessel caused by the increased permeability of retinal vessel in diabetes induced mice however the exudation was recovered by the treatment of Rk1.

[6] = system: vascular endothelial cells (HUVEC); test: MTT assay, Rk1 on apoptosis of vascular endothelial cell caused by the lack of serum; type: cell-based, human; conditions: FBS free medium, Rk1 0, 0.5, 1, 5, 10 μg/ml, 24 hours; FIG. 4
Description: FIG. 4 is the result of MTT assay showing suppressive effect of Rk1 on the apoptosis of HUVEC in medium,
as §3, with “Vascular” for “HUVEC and retinal vascular”, “Rk1,” for “SG,”, “0, 0.5,” for “0,”, “10” for “10, 20”, “and” for “. The medium was”

[7] = system: tight junction protein ZO-1, ZO-2 and occludin; test: Immunocytochemistry of tight junction proteins in mouse retina; type: in vivo, C57/BL6 mice
[8] = system: tight junction protein ZO-1, ZO-2 and occludin; test: Immunocytochemistry of tight junction proteins in human retinal vascular endothelial cells; type: cell-based; conditions: human retinal endothelial cell
Description: Human retinal vascular endothelial cell were spread on 35 mm dish (2×10^5 cells/well) and were incubated for 24 hours. The cells were transferred to human endothelial SFM-basal growth medium (Invitrogen, USA), incubated for 24 hours and transferred to new human endothelial SFM-basal growth medium again. The medium was treated with 20 ng/m ? of VEGF (vascular endothelial growth factor) and Rk1, and incubated for 6 hours. After the incubation, the medium was washed with PBS solution and immunocytochemistry analysis was performed to determine the change of tight junction protein.

[9] = system: tight junction proteins ZO-1, ZO-2 and occludin; test: Western blot of tight junction proteins in human retinal vascular endothelial cells; type: cell-based; conditions: human retinal endothelial cell, FIG. 6a
Description: Human retinal vascular endothelial cell were spread on 60 mm dish (3×10^5 cells/well) and were incubated for 24 hours.
The cells were transferred to human endothelial SFM-basal growth medium (Invitrogen, USA), incubated for 24 hours and transferred to new human endothelial SFM-basal growth medium again. The medium was treated with 20 ng/m ? of VEGF (vascular endothelial growth factor) and Rk1, and incubated for 6 hours. After the incubation, the cells were collected to induce lysis and western blot analysis was performed.

C=C(CCC=C(C)C)[C@H]1CC[C@]2(C)[C@@H]1[C@H](O)C[C@@H]1[C@@]3(C)CC[C@H](O[C@@H]4O[C@H](CO)[C@@H](O)[C@H](O)[C@H]4O[C@@H]4O[C@H](CO)[C@@H](O)[C@H](O)[C@H]4O)C(C)(C)[C@@H]3CC[C@]12C [Rk1, ginsenoside Rk1]
apoptosis and cell viability of HUVEC (MTT assay) [1]: inhibited the apoptosis | DNA fragmentation of vascular endothelial cells (DAPI) [2]: suppressed the DNA fragmentation | apoptosis and cell viability of retinal vascular endothelial cells (MTT assay) [3]: inhibited the apoptosis | recovering effect on the decrease of tight junction proteins ZO-1, ZO-2 and occludin (western blot) ([4]; decrease caused by VEGF 100 ng, 30 μg Rk1 injected into the retina, 24 hours, mouse): potent recovering effect | recovering effect on the decrease of tight junction proteins ZO-1, ZO-2 and occludin (western blot) ([4]; decrease caused by diabetes, mouse retina): potent recovering effect | exudation of fluorescent material (increased permeability of retinal vessel), angiography ([5]; VEGF 100 ng and 30 μg Rk1 injected into the retina, 24 hours, mouse): recovered | exudation of fluorescent material (increased permeability of retinal vessel), angiography ([5]; diabetes induced mice): recovered | apoptosis and cell viability of vascular endothelial cells (MTT assay) [6]: inhibited the apoptosis | recovering effect on the decrease of tight junction protein ZO-1, ZO-2 and occludin (immunocytochemistry) ([7]; decrease caused by VEGF 100 ng, 30 μg Rk1 injected into the retina, 24 hours, mouse, FIG. 9): potent recovering effect | recovering effect on the decrease of tight junction protein ZO-1, ZO-2 and occludin (immunocytochemistry) ([7]; decrease caused by diabetes, mouse retina, FIG. 10): potent recovering effect | recovering effect on the decrease of tight junction protein ZO-1, ZO-2 and occludin (immunocytochemistry) ([8]; decrease caused by AGE, FIG. 7): potent recovering effect | recovering effect on the decrease of tight junction protein ZO-1, ZO-2 and occludin (immunocytochemistry) ([8]; decrease caused by VEGF 20 ng/ml, 6 hours, FIG. 8): potent recovering effect | recovering effect on the decrease of tight junction proteins ZO-1, ZO-2 and occludin (western blot) ([9]; decrease caused by AGE (advanced glycation end product)): potent recovering effect | recovering effect on the decrease of tight junction proteins ZO-1, ZO-2 and occludin (western blot) ([9]; decrease caused by VEGF 20 ng/ml, 6 hours): potent recovering effect

CC(C)=CCC[C@](C)(O[C@@H]1O[C@H](CO[C@@H]2O[C@H](CO)[C@@H](O)[C@H](O)[C@H]2O)[C@@H](O)[C@H](O)[C@H]1O)[C@H]1CC[C@]2(C)[C@@H]1[C@H](O)C[C@@H]1[C@@]3(C)CC[C@H](O[C@@H]4O[C@H](CO)[C@@H](O)[C@H](O)[C@H]4O[C@@H]4O[C@H](CO)[C@@H](O)[C@H](O)[C@H]4O)C(C)(C)[C@@H]3CC[C@]12C [Rb1, ginsenoside Rb1, reference compound]
apoptosis and cell viability of retinal vascular endothelial cells (MTT assay) [3]: did not

CC(C)=CCC[C@](C)(O[C@@H]1O[C@H](CO)[C@@H](O)[C@H](O)[C@H]1O)[C@H]1CC[C@]2(C)[C@@H]1[C@H](O)C[C@@H]1[C@@]3(C)CC[C@H](O)C(C)(C)[C@@H]3[C@@H](O[C@@H]3O[C@H](CO)[C@@H](O)[C@H](O)[C@H]3O[C@@H]3O[C@@H](C)[C@H](O)[C@@H](O)[C@H]3O)C[C@]12C [Re, ginsenoside Re, reference compound]
apoptosis and cell viability of retinal vascular endothelial cells (MTT assay) [3]: did not

CC(C)=CCC[C@](C)(O)[C@H]1CC[C@]2(C)[C@@H]1[C@H](O)C[C@@H]1[C@@]3(C)CC[C@H](O[C@@H]4O[C@H](CO)[C@@H](O)[C@H](O)[C@H]4O[C@@H]4O[C@H](CO)[C@@H](O)[C@H](O)[C@H]4O)C(C)(C)[C@@H]3CC[C@]12C [Rg3, ginsenoside Rg3]
apoptosis and cell viability of HUVEC (MTT assay) [1]: inhibited the apoptosis | apoptosis and cell viability of retinal vascular endothelial cells (MTT assay) [3]: inhibited the apoptosis

CC(C)=CCC[C@](C)(O[C@@H]1O[C@H](CO)[C@@H](O)[C@H](O)[C@H]1O)[C@H]1CC[C@]2(C)[C@@H]1[C@H](O)C[C@@H]1[C@@]3(C)CC[C@H](O)C(C)(C)[C@@H]3[C@@H](O[C@@H]3O[C@H](CO)[C@@H](O)[C@H](O)[C@H]3O)C[C@]12C [Rg1, ginsenoside Rg1, reference compound]
apoptosis and cell viability of retinal vascular endothelial cells (MTT assay) [3]: did not

CC(C)=CC/C=C(\C)[C@H]1CC[C@]2(C)[C@@H]1[C@H](O)C[C@@H]1[C@@]3(C)CC[C@H](O[C@@H]4O[C@H](CO)[C@@H](O)[C@H](O)[C@H]4O[C@@H]4O[C@H](CO)[C@@H](O)[C@H](O)[C@H]4O)C(C)(C)[C@@H]3CC[C@]12C [Rg5, ginsenoside Rg5]
apoptosis and cell viability of HUVEC (MTT assay) [1]: inhibited the apoptosis | apoptosis and cell viability of retinal vascular endothelial cells (MTT assay) [3]: inhibited the apoptosis

Reference: patent publication US20090317496A1, “Method for Preventing and Treating the Disease Caused by Vascular Damage and the Use Thereof” (priority 2005, published 2009)
